Test results reported in US12397058B2, “Metabolically stable prodrugs” (TSRL, Inc., priority 2018, dated 2025).
Read-outs that look alike come from different tables or passages of the source.

Columns and labels:
[1] = system: HSV1 E377; assay: microbe, parasite or virus in culture; assay type: cell-based, Herpes Simplex Virus 1
Procedure: (§1) Screening Assays for HSV-1, HSV-2, CMV, and VZV
(§2) Cells. Human foreskin fibroblast (HFF) cells were prepared from human foreskin tissue. The tissue was incubated at 4° C. for 4 h in Clinical Medium and then placed in phosphate buffered saline (PBS) to remove the red blood cells, and resuspended in trypsin/EDTA solution. The tissue suspension was incubated at 37° C. and gently agitated to disperse the cells, which were collected by centrifugation. Cells were resuspended in 4 ml Clinical Medium and placed in a flask and incubated at 37° C. in a humidified CO2 incubator for 24 h. The media was then replaced with fresh Clinical Medium and the cell growth was monitored daily until a confluent monolayer has formed. The HFF cells were then expanded through serial passages in standard growth medium of MEM with Earl's salts supplemented with 10% FBS and antibiotics. The cells were passaged routinely and used for assays at or below passage 10.
(§3) Primary Cytopathic Effect (CPE) Reduction Assay. Low passage (3-10) HFF cells were trypsinized, counted, and seeded into 96 well tissue culture plates in 0.1 ml of MEM supplemented with 10% FBS. The cells were then incubated for 24 h at 37° C. The media was then removed and 100 μl of MEM containing 2% FBS was added to all but the first row. In the first row, 125 μl of media containing the experimental drug was added in triplicate wells. Media alone was added to both cell and virus control wells. The drug in the first row of wells was then diluted serially 1:5 throughout the remaining. The plates were then incubated for 60 min and 100 μl of a virus suspension was added to each well, excluding cell control wells which received 100 μl of MEM. The plates were then incubated at 37° C. in a CO2 incubator for three days for HSV-1 and HSV-2, 10 days for VZV, or 14 d for CMV. After the incubation period, media was aspirated and the cells stained with crystal violet in formalin for 4 h. The stain was then removed and the plates were rinsed until all excess stain was removed. The plates were allowed to dry for 24 h and the amount of CPE in each row determined using a BioTek Multiplate Autoreader. EC50 and CC50 values were determined by comparing drug treated and untreated cells using a computer program.

[2] = system: HSV2 G; assay: Primary CPE reduction assay in HFF cells, HSV2 G; assay type: cell-based, Herpes Simplex Virus 2
Procedure: as §1, §2, §3

[3] = system: hCMV1 AD169; assay: Primary CPE reduction assay in HFF cells, hCMV AD169; assay type: cell-based, human Cytomegalovirus
Procedure: as §1, §2, §3

[4] = system: hCMV2 GDGRK17; assay: Primary CPE reduction assay in HFF cells, hCMV GDGRK17; assay type: cell-based, human Cytomegalovirus; settings: for EC50: Human betaherpesvirus 5, HFF, read-out: EC50 (50% reduction in the Cytopathic Effect of the virus); for TI (therapeutic index derived from EC50/CC50): hCMV2 GDGRK17, HFF cells
Procedure: as §1, §2, §3

[5] = system: mCMV Smith; assay: Primary CPE reduction assay, mCMV Smith; assay type: cell-based, murine Cytomegalovirus; settings: for EC50: Murid betaherpesvirus 1, read-out: EC50 (50% reduction in the Cytopathic Effect of the virus)
[6] = system: VZV Ellen; assay: microbe, parasite or virus in culture; assay type: cell-based, Vericella Zoster Virus
Procedure: as §1, §2, §3

[7] = system: Human Cytomegalovirus Strain AD169; assay: Additional study versus Human Cytomegalovirus Strain AD169 in HFF cells (procedures of US 2011/0263535 A1); assay type: cell-based
Procedure: Additional studies in HFF cells were performed using the procedures as outlined in US Patent Application Publication No: 2011/0263535 A1 with compounds of 120, 121, and 122. Each of the compounds were tested versus Human Cytomegalovirus Strain AD169 in HFF cells using ganciclovir as a comparator.

[8] = system: HSV1 strain DM2.1; assay: Primary CPE reduction assay in HFF cells, HSV1 strain DM2.1; assay type: cell-based, Herpes Simplex Virus 1
Procedure: as §1, §2
Primary Cytopathic Effect (CPE) Reduction Assay. Low passage (3-10) HFF cells were trypsinized, counted, and seeded into 96 well tissue culture plates in 0.1 ml of MEM supplemented with 10% FBS. […] The plates were allowed to dry for 24 h and the amount of CPE in each row determined using a BioTek Multiplate Autoreader. EC50 and CC50 values were determined by comparing drug treated and untreated cells using a computer program.

[9] = Human alphaherpesvirus 1, read-out: EC50 (50% reduction in the Cytopathic Effect of the virus), HSV1 E377, HFF cells
[10] = Human alphaherpesvirus 2, read-out: EC50 (50% reduction in the Cytopathic Effect of the virus), HSV2 G, HFF cells
[11] = Human betaherpesvirus 5, read-out: EC50 (50% reduction in the Cytopathic Effect of the virus), hCMV1 AD169, HFF cells
[12] = Human Cytomegalovirus Strain AD169 in HFF cells
[13] = Human alphaherpesvirus 1, HFF, read-out: EC50 (50% reduction in the Cytopathic Effect of the virus)
[14] = Human alphaherpesvirus 2, HFF, read-out: EC50 (50% reduction in the Cytopathic Effect of the virus)
[15] = Human betaherpesvirus 5, AD169, HFF, read-out: EC50 (50% reduction in the Cytopathic Effect of the virus)
[16] = Human alphaherpesvirus 3, HFF, read-out: EC50 (50% reduction in the Cytopathic Effect of the virus)
[17] = Human betaherpesvirus 5, AD169, HFF

Row | SMILES | TI (therapeutic index derived from EC50/CC50) ([1]; HSV1 E377, HFF cells) | EC50 [1, 9] [nM] | TI (therapeutic index derived from CC50/EC50) ([2]; HSV2 G, HFF cells) | EC50 [3, 11] [nM] | TI (therapeutic index derived from EC50/CC50) ([3]; hCMV1 AD169, HFF cells) | EC50 [4] [nM] | TI (therapeutic index derived from EC50/CC50) [4] | TI (therapeutic index derived from EC50/CC50) ([5]; mCMV Smith) | TI (therapeutic index derived from EC50/CC50) ([6]; VZV Ellen, HFF cells) | Therapeutic index EC90/HFF Cytotoxicity 50% [7, 12] | EC50 [1, 13] [nM] | EC50 [2, 14] [nM] | EC50 [3, 15] [nM] | EC50 [5] [nM] | EC50 [6, 16] [nM] | EC90 [7, 17] [nM] | further results
1 | CC1(CCCCCCCCCCCCS(=O)(=O)CCCOP(=O)(O)CO[C@H](CO)Cn2cnc(N)cc2=O)COC1 [Compound 110, Ammonium 3-((12-(3-methyloxetan-3-yl)dodecyl)sulfonyl)propyl Hydrogen ((((S)-1-(4-amino-6-oxopyrimidin-1(6H)-yl)-3-hydroxypropan-2-yl)oxy)methyl)phosphonate] | >313 | 160 | >1250 | 10 | 184 | < 0.3 | >3125 | 2213 | 225 | – | – | – | – | – | – | – | EC50 [2, 10]: 40 nM; EC50 ([5]; mCMV Smith): < 0.3 nM; EC50 ([6]; Human alphaherpesvirus 3, read-out: EC50 (50% reduction in the Cytopathic Effect of the virus), VZV Ellen, HFF cells): 10 nM
2 | Nc1nc(O)c2ncn(COC(CO)CO)c2n1 [Ganciclovir, reference compound] | – | – | – | 1630 | >92 | 150 | >1030 | >882 | – | 1 | – | – | – | – | – | – | EC50 ([5]; mCMV Smith): 170 nM; EC90 ([7]; Human betaherpesvirus 5, Human Cytomegalovirus Strain AD169 in HFF cells, read-out: EC90): > 150000 nM
3 | N.Nc1ccn(C[C@@H](CO)OCP(=O)(O)OCCCS(=O)(=O)CCCCCCCCCCCCC2CCC2)c(=O)n1 [Compound 121, Ammonium 3-((12-cyclobutyldodecyl)sulfonyl)propyl hydrogen ((((S)-1-(4-amino-2-oxopyrimidin-1(2H)-yl)-3-hydroxypropan-2-yl)oxy)methyl)phosphonate] | 1159 | – | 498 | – | >19 | < 0.3 | >2753 | >3125 | 23 | >15 | 10 | 10 | < 10 | < 0.3 | 10 | < 20 | –
4 | N.Nc1ccn(C[C@@H](CO)OCP(=O)(O)OCCCS(=O)(=O)CCCCCCCCCCCCCCC2CCC2)c(=O)n1 [Compound 123, Ammonium 3-((14-cyclobutyltetradecyl)sulfonyl)propyl (S)-(((1-(4-amino-2-oxopyrimidin-1(2H)-yl)-3-hydroxypropan-2-yl)oxy)methyl)phosphonate] | – | – | – | – | >5 | – | – | – | – | – | – | – | < 50 | – | – | – | TI (therapeutic index derived from EC50/CC50) ([8]; HSV1 strain DM2.1 (footnote a), HFF cells): >142^a; EC50 [8, 13]: < 50 nM
5 | N.Nc1ccn(C[C@@H](CO)OCP(=O)(O)OCCCS(=O)(=O)CCCCCCCCCCC2CCC2)c(=O)n1 [Compound 120, Ammonium 3-((10-cyclobutyldecyl)sulfonyl)propyl hydrogen ((((S)-1-(4-amino-2-oxopyrimidin-1(2H)-yl)-3-hydroxypropan-2-yl)oxy)methyl)phosphonate] | 149 | – | >3950 | – | 74 | < 0.3 | >2772 | >3125 | 25 | >37 | 70 | 10 | 8 | < 0.3 | 20 | < 20 | –
6 | CCCCCCCCCCCCCCCCCCS(=O)(=O)CCCOP(=O)(OCCCS(=O)(=O)CCCCCCCCCCCCCCCCCC)C(=O)OCC [Compound 125, Ethyl (bis(3-(octadecylsulfonyl)propoxy)phosphoryl)formate] | – | – | – | 132000 | >1 | – | – | – | – | – | – | – | – | – | – | – | –
7 | CCOC(=O)P(=O)(OCCCS(=O)(=O)CCCCC1CCC1)OCCCS(=O)(=O)CCCCC1CCC1 [Compound 119, Ethyl (bis(3-((4-cyclobutylbutyl)sulfonyl)propoxy)phosphoryl)formate] | – | – | – | > 30000 | <3 | – | – | – | – | – | – | – | – | – | – | – | –
8 | CCOC(=O)P(=O)(OCCCS(=O)(=O)CCCCCCCC1(C)COC1)OCCCS(=O)(=O)CCCCCCCC1(C)COC1 [Compound 124, Ethyl (bis(3-((7-(3-methyloxetan-3-yl)heptyl)sulfonyl)-propoxy)phosphoryl)formate] | 1 | > 150000 | – | > 150000 | 1 | – | – | – | – | – | – | – | – | – | – | – | –
9 | N.Nc1ccn(C[C@@H](CO)OCP(=O)(O)OCCCS(=O)(=O)CCCCCCCCCCCCCC2CCC2)c(=O)n1 [Compound 122, Ammonium 3-((13-cyclobutyltridecyl)sulfonyl)propyl hydrogen ((((S)-1-(4-amino-2-oxopyrimidin-1(2H)-yl)-3-hydroxypropan-2-yl)oxy)methyl)phosphonate] | 469 | – | >14 | – | >19 | < 0.3 | >2209 | >3125 | 31 | >13 | 20 | 140 | < 10 | < 0.3 | 7 | < 20 | –
10 | Nc1nc2c(ncn2COCCO)c(=O)[nH]1 [Acyclovir, reference compound] | – | 960 | – | – | – | – | – | – | – | – | – | – | – | – | – | – | EC50 [2, 10]: 380 nM
